Laboratory results published in PubChem BioAssay (NCI).
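The concentration for 50% growth inhibition is given as GI50. At the TGI there is no net growth.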

What was measured:
Experiment in all cases: inhibition of tumour cell growth, NCI panel, 384-well format
T-47D breast = tested on: T-47D breast
SK-MEL-5 melanoma = tested on: SK-MEL-5 melanoma
KM12 colon = tested on: KM12 colon
SN12C renal = tested on: SN12C renal
HOP-92 NSCLC = tested on: HOP-92 NSCLC
MDA-MB-231 breast = tested on: MDA-MB-231 breast
UO-31 renal = tested on: UO-31 renal
DU-145 prostate = tested on: DU-145 prostate
IGROV1 ovarian = tested on: IGROV1 ovarian
UACC-257 melanoma = tested on: UACC-257 melanoma
COLO 205 colon = tested on: COLO 205 colon
MOLT-4 leukemia = tested on: MOLT-4 leukemia
NCI-H23 lung = tested on: NCI-H23 lung
MCF7 breast = tested on: MCF7 breast
NCI-H460 NSCLC = tested on: NCI-H460 NSCLC
HCT-15 colon = tested on: HCT-15 colon
RPMI-8226 leukemia = tested on: RPMI-8226 leukemia
SW-620 colon = tested on: SW-620 colon
SK-OV-3 ovarian = tested on: SK-OV-3 ovarian
SF-268 CNS = tested on: SF-268 CNS
NCI-H226 lung = tested on: NCI-H226 lung
ACHN renal = tested on: ACHN renal
SNB-75 CNS = tested on: SNB-75 CNS
HOP-62 NSCLC = tested on: HOP-62 NSCLC
786-0 renal = tested on: 786-0 renal
NCI-H322M lung = tested on: NCI-H322M lung
SK-MEL-28 melanoma = tested on: SK-MEL-28 melanoma
LOX IMVI melanoma = tested on: LOX IMVI melanoma
MDA-MB-435 melanoma = tested on: MDA-MB-435 melanoma
CAKI-1 renal = tested on: CAKI-1 renal
OVCAR-8 ovarian = tested on: OVCAR-8 ovarian
PC-3 prostate = tested on: PC-3 prostate
OVCAR-5 ovarian = tested on: OVCAR-5 ovarian
M14 melanoma = tested on: M14 melanoma
MDA-MB-468 breast = tested on: MDA-MB-468 breast
SF-539 CNS = tested on: SF-539 CNS
RXF 393 renal = tested on: RXF 393 renal
UACC-62 melanoma = tested on: UACC-62 melanoma
HS 578T breast = tested on: HS 578T breast
K-562 leukemia = tested on: K-562 leukemia
EKVX NSCLC = tested on: EKVX NSCLC
HCT-116 colon = tested on: HCT-116 colon
TK-10 renal = tested on: TK-10 renal
SNB-19 CNS = tested on: SNB-19 CNS
MALME-3M melanoma = tested on: MALME-3M melanoma
CCRF-CEM leukemia = tested on: CCRF-CEM leukemia
SF-295 CNS = tested on: SF-295 CNS
HL-60(TB) leukemia = tested on: HL-60(TB) leukemia
NCI-H522 lung = tested on: NCI-H522 lung
NCI/ADR-RES ovarian = tested on: NCI/ADR-RES ovarian
U251 glioblastoma = tested on: U251 glioblastoma
OVCAR-4 ovarian = tested on: OVCAR-4 ovarian
HT29 colon = tested on: HT29 colon
A498 renal = tested on: A498 renal
OVCAR-3 ovarian = tested on: OVCAR-3 ovarian
A549 NSCLC = tested on: A549 NSCLC
BT-549 breast = tested on: BT-549 breast
HCC-2998 colon = tested on: HCC-2998 colon

## CN(CCO)C1CCN(c2ccc(Nc3ncc4c5ccnc(F)c5n(C5CCCC5)c4n3)nc2)CC1
T-47D breast
  GI50: 1880 nM
  TGI: 67500 nM
SK-MEL-5 melanoma
  GI50: 480 nM
  TGI: 2030 nM
KM12 colon
  GI50: 56.8 nM
  TGI: 1280 nM
SN12C renal
  GI50: 3020 nM
  TGI: 14900 nM
HOP-92 NSCLC
  GI50: 3020 nM
  TGI: 15400 nM
MDA-MB-231 breast
  GI50: 1260 nM
  TGI: 2710 nM
UO-31 renal
  GI50: 1200 nM
  TGI: 2450 nM
DU-145 prostate
  GI50: 1720 nM
  TGI: 3130 nM
IGROV1 ovarian
  GI50: 1050 nM
  TGI: 2260 nM
UACC-257 melanoma
  GI50: 1550 nM
  TGI: 2900 nM
COLO 205 colon
  GI50: 373 nM
  TGI: 1950 nM
MOLT-4 leukemia
  GI50: 62.4 nM
  TGI: 812 nM
NCI-H23 lung
  GI50: 1200 nM
  TGI: 2460 nM
MCF7 breast
  GI50: 353 nM
  TGI: 1760 nM
NCI-H460 NSCLC
  GI50: 188 nM
  TGI: 1810 nM
HCT-15 colon
  GI50: 1080 nM
  TGI: 2320 nM
RPMI-8226 leukemia
  GI50: 47.7 nM
  TGI: 1120 nM
SW-620 colon
  GI50: 574 nM
  TGI: 2010 nM
SK-OV-3 ovarian
  GI50: 1450 nM
  TGI: 2780 nM
SF-268 CNS
  GI50: 79.4 nM
  TGI: 941 nM
NCI-H226 lung
  GI50: 5220 nM
  TGI: > 100000 nM
ACHN renal
  GI50: 1000 nM
  TGI: 2190 nM
SNB-75 CNS
  GI50: 1480 nM
  TGI: 2810 nM
HOP-62 NSCLC
  GI50: 1170 nM
  TGI: 2420 nM
786-0 renal
  GI50: 1150 nM
  TGI: 2370 nM
NCI-H322M lung
  GI50: 1340 nM
  TGI: 2640 nM
SK-MEL-28 melanoma
  GI50: 4060 nM
  TGI: 16200 nM
LOX IMVI melanoma
  GI50: 977 nM
  TGI: 2180 nM
MDA-MB-435 melanoma
  GI50: 2260 nM
  TGI: 9490 nM
CAKI-1 renal
  GI50: 868 nM
  TGI: 2150 nM
OVCAR-8 ovarian
  GI50: 1620 nM
  TGI: 3010 nM
PC-3 prostate
  GI50: 1430 nM
  TGI: 2790 nM
OVCAR-5 ovarian
  GI50: 885 nM
  TGI: > 100000 nM
M14 melanoma
  GI50: 1190 nM
  TGI: 2440 nM
MDA-MB-468 breast
  GI50: 1630 nM
  TGI: 2990 nM
SF-539 CNS
  GI50: 1380 nM
  TGI: 2680 nM
RXF 393 renal
  GI50: 1280 nM
  TGI: 2550 nM
UACC-62 melanoma
  GI50: 1350 nM
  TGI: 2640 nM
HS 578T breast
  GI50: 1420 nM
  TGI: 3200 nM
K-562 leukemia
  GI50: 664 nM
  TGI: 2090 nM
EKVX NSCLC
  GI50: 1270 nM
  TGI: 2560 nM
HCT-116 colon
  GI50: 684 nM
  TGI: 2050 nM
TK-10 renal
  GI50: 1370 nM
  TGI: 2700 nM
SNB-19 CNS
  GI50: 1370 nM
  TGI: 2760 nM
MALME-3M melanoma
  GI50: 1340 nM
  TGI: 2640 nM
CCRF-CEM leukemia
  GI50: 89.3 nM
  TGI: 1250 nM
SF-295 CNS
  GI50: 881 nM
  TGI: 2150 nM
HL-60(TB) leukemia
  GI50: 52.1 nM
  TGI: 1760 nM
NCI-H522 lung
  GI50: 1770 nM
  TGI: 3170 nM
NCI/ADR-RES ovarian
  GI50: 1740 nM
  TGI: 3170 nM
U251 glioblastoma
  GI50: 1120 nM
  TGI: 2350 nM
OVCAR-4 ovarian
  GI50: 1730 nM
  TGI: 3130 nM
HT29 colon
  GI50: 1020 nM
  TGI: 2230 nM
A498 renal
  GI50: 853 nM
  TGI: 2120 nM
OVCAR-3 ovarian
  GI50: 1870 nM
  TGI: 3290 nM
A549 NSCLC
  GI50: 619 nM
  TGI: 1990 nM
BT-549 breast
  GI50: 1490 nM
  TGI: 2830 nM
HCC-2998 colon
  GI50: 655 nM
  TGI: 2010 nM
